Assay results reported in patent publication US20160030510A1, “METHODS OF TREATING ALZHEIMER'S DISEASE AND OTHER TAUOPATHIES WITH INHIBITORS OF MICROTUBULE AFFINITY REGULATING KINASE” (The Board of Trustees of the Leland Stanford Junior …, priority 2012, published 2016).
Where a SMILES comes first, the peptide text is derived from it. Where no end group is shown, it is not given here.

What was measured:
[1] = tested on: PAR-1/MARK-mediated tau phosphorylation; assay: Tau phosphorylation in transfected rat hippocampal neurons (western blot / immunostaining with 12E8 and PHF-1 antibodies); assay type: cell-based
Method: (§1) Robust 12E8 staining (gray) is seen in EGFP-transfected control neurons. Total tau is stained with anti-HA (gray). […] EGFP-transfected neurons served as control. […] Data quantification is shown in (3E) (***P<0.001 in Student's t-test). Scale bar, 10 μm.
(§2) Rat E18 hippocampal neuron primary cultures were prepared as described (Yu et al. (2011) Hum. Mol. Genet. 20:3227-3240, herein incorporated by reference in its entirety). Cultured neurons, grown for 10-days in vitro in 12-well plates, were transfected with 2-3 μg of plasmid per well using a CalPhos Mammalian Transfection Kit (Clontech, San Jose, Calif., USA). Fluorescence immunocytochemistry was performed 3 days after transfection. Preparation and concentration of lentiviral particles were performed as described before (Yu et al., supra). Viral transfection of hippocampal neurons was carried out at 10 days after in vitro culture. The next day, the culture medium was replaced with 50% fresh medium and 50% conditioned medium.
EGFP-tagged PSD-95-WT in the FHUGW lentivirus vector was described before (Xu et al. (2008) Neuron 57:248-262). The S561A mutation was introduced by site-directed mutagenesis. Tau S2A mutations were introduced as described before (Nishimura et al. Cell, 116:671-682), and subcloned into FHUGW with a C-terminal HA tag. EGFP- and HA-tagged human MARK4 constructs were obtained from Dr. Gerard Drewes. MKI cDNA was obtained from Dr. C. […]
(§3) Chicken anti-EGFP (1:4000) and rabbit anti-HA (1:3000) antibodies were purchased from Abcam (Cambridge, Mass., USA); mouse anti-Myc (1:1500, 4A6) and mouse anti-PSD-95 (1:300) from Millipore (Billerica, Mass., USA); rabbit anti-GluR1 (1:200) from Calbiochem (San Diego, Calif., USA) and rabbit anti-Synapsin I (1:1000) from Sigma (St Louis, Mo., USA). […] Dendritic spine number and clusters of PSD-95, GluR1 or Synapsin I were manually counted as the number along a 10 μm length of dendrite and presented as mean±SEM. […] Between 15 and 30 dendritic processes were selected for quantification. Data were analyzed while blind to the conditions.

all MARKs = details: Nesic et al. (2010); cited from earlier work
Aβ-induced spine loss = details: Zempel et al. (2010); cited from earlier work
Human MARK4 = target: T1, Human MARK4 (Homo sapiens, UniProt Q96L34); assay: In vitro kinase assay of MARK4 phosphorylating tau (Western blot); assay type: biochemical; details: human MARK4 and tau affinity-purified from HEK293 cells, FIG. 7
T1 construct: made in house; host or cells: HEK293 cells
T1 sequence (Q96L34 1-752): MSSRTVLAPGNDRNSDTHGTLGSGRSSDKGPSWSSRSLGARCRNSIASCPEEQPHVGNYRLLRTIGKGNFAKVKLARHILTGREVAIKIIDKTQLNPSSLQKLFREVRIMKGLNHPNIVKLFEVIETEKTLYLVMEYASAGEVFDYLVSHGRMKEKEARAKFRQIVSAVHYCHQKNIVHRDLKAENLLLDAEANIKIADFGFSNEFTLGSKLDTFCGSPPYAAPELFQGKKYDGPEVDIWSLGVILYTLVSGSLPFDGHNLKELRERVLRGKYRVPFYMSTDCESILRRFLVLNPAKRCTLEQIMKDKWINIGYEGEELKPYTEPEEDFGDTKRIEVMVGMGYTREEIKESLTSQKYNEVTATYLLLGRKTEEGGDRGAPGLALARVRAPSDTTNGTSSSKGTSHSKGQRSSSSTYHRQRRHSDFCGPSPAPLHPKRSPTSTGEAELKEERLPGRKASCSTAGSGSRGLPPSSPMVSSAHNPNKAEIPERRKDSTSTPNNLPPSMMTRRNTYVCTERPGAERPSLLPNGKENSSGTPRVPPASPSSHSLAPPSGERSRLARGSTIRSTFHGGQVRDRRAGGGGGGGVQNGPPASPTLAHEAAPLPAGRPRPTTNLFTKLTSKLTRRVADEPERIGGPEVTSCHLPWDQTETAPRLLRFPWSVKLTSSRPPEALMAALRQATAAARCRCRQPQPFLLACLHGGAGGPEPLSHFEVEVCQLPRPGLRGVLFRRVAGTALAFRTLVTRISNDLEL
Excerpt: Both human MARK4 and tau proteins were expressed in HEK293 cells and affinity-purified by immunoprecipitation. After in vitro kinase reaction in the presence or absence of the peptides, the reaction mixtures were separated on SDS-PAGE to separate the proteins, and the levels of total tau and phospho-tau generated by MARK4 were detected by Western blot analysis. The TAT peptide was used as a negative control. Note the inhibition of MARK4-mediated tau phosphorylation by both TAT-MKI and MKI-TAT.
We next tested the ability of the TAT-MKI and MKI-TAT fusions to inhibit the activity of MARK4 kinase in phosphorylating the tau protein (FIG. 7). Human MARK4 and tau proteins were expressed in HEK293 cells and affinity-purified by immunoprecipitation. In vitro kinase reactions were performed in the presence or absence of the TAT-MKI and MKI-TAT fusion peptides and the levels of total tau and phospho-tau generated by MARK4 were detected by Western blot analysis. The TAT peptide was used as a negative control. Both the TAT-MKI and MKI-TAT fusion peptides inhibited MARK4-mediated tau phosphorylation in vitro.

[2] = tested on: AMP-activated kinase (AMPK); assay: AMPK kinase activity in neurons detected with phospho-acetyl-CoA carboxylase (Ser79) antibody; assay type: cell-based, rat; details: specificity control; pACC antibody, FIG. 3C
rat hippocampal neurons [3] = assay: MARK4 overexpression-induced synaptic and spine toxicity in hippocampal neurons; assay type: cell-based
Method: as §1, §2
Chicken anti-EGFP (1:4000) and rabbit anti-HA (1:3000) antibodies were purchased from Abcam (Cambridge, Mass., USA); mouse anti-Myc (1:1500, 4A6) and mouse anti-PSD-95 (1:300) from Millipore (Billerica, Mass., USA); rabbit anti-GluR1 (1:200) from Calbiochem (San Diego, Calif., USA) and rabbit anti-Synapsin I (1:1000) from Sigma (St Louis, Mo., USA). Immunofluorescence analysis was done essentially as described before (Yu et al., supra). Confocal images were obtained using a Leica TCS SP5 confocal microscope or Zeiss inverted LSM510 confocal microscope (Carl Zeiss, Inc.) with 63× NA 1.4 objectives. Processed confocal images were used to make 2D projections. Dendritic spine number and clusters of PSD-95, GluR1 or Synapsin I were manually counted as the number along a 10 μm length of dendrite and presented as mean±SEM. Each experiment was done at least three times and six to nine neurons were randomly selected for analysis each time. Between 15 and 30 dendritic processes were selected for quantification. Data were analyzed while blind to the conditions.

rat hippocampal neurons [4] = assay: Aβ oligomer-induced synaptic and dendritic spine defects in hippocampal neurons (morphology); assay type: cell-based; details: 5 μM Aβ oligomer-treated neurons
Method: FIGS. 4A-4C show the effects of MKI-EGFP on Aβ-induced loss of PSD-95 (FIG. 4A) and GluR1 (FIG. 4B) clusters and spine numbers. Neurons transfected with MKI-EGFP or EGFP were treated with Aβ oligomer or mock-treated with solvent as control. The cytoplasmic GFP signals allowed detection of dendritic spines, and PSD-95 or GluR1 clusters were detected by immunostaining. Quantification of data is shown in (FIG. 4C) (***P<0.001 in Student's t-test). […] Summary graphs from four to six culture sets plotting normalized mEPSC frequency and mEPSC amplitude are shown beneath the traces. Scale bar, 5 μm.
as §2
Commercial Aβ-42 peptide was purchased from rPeptide (Bogart, Ga., USA). […]
as §3

rat hippocampal neurons [5] = assay type: cell-based; details: FIG. 4D

Compound: MKI: peptide inhibitor (SEQ ID NO:1) derived from the CagA protein of Helicobacter pylori, binds substrate-binding sites of all MARKs (FPLKRHDKVDDLSK)
- Phosphorylation of tau at the PHF-1 site ([1]; rat hippocampal neurons, western blot, FIG. 3A): reduced
- binding to the substrate-binding sites of all MARKs (all MARKs): specifically bind with high affinity

Compound: CC(=O)O[C@H]1C(=O)[C@@]2(C)[C@H]([C@H](OC(=O)c3ccccc3)[C@]3(O)C[C@H](OC(=O)[C@H](O)[C@@H](NC(=O)c4ccccc4)c4ccccc4)C(C)=C1C3(C)C)[C@]1(OC(C)=O)CO[C@@H]1C[C@@H]2O [taxol]
- Aβ-induced spine loss (Aβ-induced spine loss): preventable

Compound: CC(=O)N[C@@H](Cc1ccc(O)cc1)C(=O)NCC(=O)N[C@@H](CCCNC(=N)N)C(=O)N[C@@H](CCCCN)C(=O)N[C@@H](CCCCN)C(=O)N[C@@H](CCCNC(=N)N)C(=O)N[C@@H](CCCNC(=N)N)C(=O)N[C@@H](CCC(N)=O)C(=O)N[C@@H](CCCNC(=N)N)C(=O)N[C@@H](CCCNC(=N)N)C(=O)N[C@@H](CCCNC(=N)N)C(=O)NCC(=O)NCC(=O)N[C@@H](Cc1ccccc1)C(=O)N1CCC[C@H]1C(=O)N[C@@H](CC(C)C)C(=O)N[C@@H](CCCCN)C(=O)N[C@@H](CCCNC(=N)N)C(=O)N[C@@H](Cc1c[nH]cn1)C(=O)N[C@@H](CC(=O)O)C(=O)NCC(=O)N[C@H](C(=O)N[C@@H](CC(=O)O)C(=O)N[C@@H](CC(=O)O)C(=O)N[C@@H](CC(C)C)C(=O)N[C@@H](CO)C(=O)N[C@@H](CCCCN)C(=O)N[C@H](C(=O)NCC(N)=O)C(C)C)C(C)C [TAT-MKI] (Ac-YGRKKRRQRRRGGFPLKRHDGVDDLSKVG-NH2)
- MARK4-mediated tau phosphorylation in vitro (Human MARK4): inhibited

Compound: MKI-EGFP: MKI cDNA subcloned into FHUGW lentivirus vector with a C-terminal EGFP tag, expressed in rat hippocampal neurons (FPLKRHDKVDDLSK; not fully specified (C-terminus))
- MARK4-mediated phosphorylation of transfected human tau at the 12E8 sites ([1]; HA-tagged h-tau-WT in rat hippocampal neurons, immunostaining, FIG. 3B): effectively attenuated
- MARK4-mediated phosphorylation of endogenous tau at the 12E8 sites ([1]; expressed in rat hippocampal neurons, western blot, FIG. 3A): effectively attenuated
- phosphorylation of acetyl-CoA carboxylase (ACC) by AMP-activated kinase (AMPK) [2]: did not affect
- MARK4 overexpression-induced reduction of GluR1 puncta density (rat hippocampal neurons [3]; FIG. 3E): effectively blocked
- MARK4 overexpression-induced reduction of PSD-95 puncta density (rat hippocampal neurons [3]; FIG. 3E): effectively blocked
- MARK4 overexpression-induced spine loss (rat hippocampal neurons [3]; co-expression in rat hippocampal neurons, FIGS. 3D and 3E): effectively blocked
- Aβ-caused reduction in the density of PSD-95 puncta (rat hippocampal neurons [4]; FIGS. 4A and 4C): effectively blocked
- Aβ-caused loss of dendritic spines (rat hippocampal neurons [4]; FIGS. 4A-4C): effectively blocked
- Aβ-caused reduction in the density of GluR1 puncta (rat hippocampal neurons [4]; FIGS. 4B and 4C): effectively blocked
- reduction of mEPSC frequency caused by Aβ (rat hippocampal neurons [5]; Aβ-treated neurons, held at −70 mV): effectively rescued
- mEPSC amplitude in neurons expressing inhibitor alone (rat hippocampal neurons [5]; no Aβ (mock-treated)): not amplitude
- mEPSC frequency in neurons expressing inhibitor alone (rat hippocampal neurons [5]; no Aβ (mock-treated)): reduced mEPSC frequency
